Data as given in EPA's ToxValDB 9.5 (doi:10.2903/j.efsa.2014.3814).
Converted amounts (≈) assume the structure as drawn.

Tests used:
Canidae = conditions: chronic; duration: 1 years; oral; Dog Other; organ weight
Folsomia candida = conditions: chronic/long-term; duration: 28 days
Pimephales promelas = conditions: chronic/long-term; duration: 33 days; growth
Bibionidae = conditions: chronic/long-term; duration: 28 days
Hypoaspis aculeifer = conditions: chronic/long-term; duration: 14 days
Ictalurus punctatus = conditions: acute; duration: 96 hours; mortality
Lepomis macrochirus = conditions: acute; duration: 96 hours; mortality
Oryctolagus sp. = conditions: reproduction developmental; body weight
Apis mellifera = conditions: acute, mortality
Aphidius rhopalosiphi = assay: LR50; higher = less toxic; conditions: not reported; mortality
Typhlodromus pyri = assay: LR50; higher = less toxic; conditions: not reported; mortality

In the case of `CNC(=O)c1cc(C#N)cc(C)c1NC(=O)c1cc(Br)nn1-c1ncccc1Cl` [Cyantraniliprole], the NOAEL (Canidae) is reported as 1 mg/kg-day, the LC50 (Pontoscolex corethrurus; acute, duration: 14 days, mortality) is reported as > 1000 mg/kg and the NOEC (Pontoscolex corethrurus; chronic/long-term, duration: 56 days) is reported as > 1000 mg/kg. It also gave an NOEC (Folsomia candida) of 0.08 mg/kg, an NOEC (Pimephales promelas) of 2.9 mg/L and an NOEC (Bibionidae) of 0.01 mg/L. The LD50 (Rattus norvegicus; acute, oral, mortality) was > 5000 mg/kg, the NOAEL (Rattus norvegicus; reproduction developmental, organ weight) was 1.2 mg/kg-day and the NOEC (Hypoaspis aculeifer) was 1000 mg/kg. For the same compound, the LC50 (Ictalurus punctatus) was > 10 µg/mL, the LC50 (Lepomis macrochirus) was 2.4 µg/mL (≈ 5.07 µM) and the NOAEL (Oryctolagus sp.) was 25 mg/kg-day. For the same compound, the LD50 (Colinus virginianus; acute, oral) was > 2250 mg/kg, the LC50 (Colinus virginianus; acute, oral, diet) was > 1340 mg/kg and the NOAEL (Colinus virginianus; reproduction developmental) was 93.2 mg/kg-day. The LD50 (Apis mellifera; dermal) was > 0.0934 µg/piece, the LD50 (Apis mellifera; oral, unspecified) was > 0.105 µg/piece and the LR50 (Aphidius rhopalosiphi) was 0.102 g/ha. For the same compound, the LR50 (Typhlodromus pyri) was > 230 g/ha.
